Here are results for 22 compounds from patent US9139532B2, “Pyrazolyl guanidine F1F0-atpase inhibitors and therapeutic uses thereof” (Lycera Corporation, priority 2010, dated 2015).

One test concerns the target T1, F1F0-ATPase (Bos taurus, UniProt P13621).
T1 construct: from tissue
As to the kind of experiment: Inhibition of F1F0-ATPase activity in synthesizing ATP. Format: biochemical. The following applies: inhibition of ATP synthesis by F1F0-ATPase; read-out: ATP Syn IC50.

A further test has as its system Ramos cells. As to the kind of experiment: Cytotoxicity in Ramos cells. Format: cell-based. The following applies: cytotoxicity in Ramos cells, read-out: Ramos Cell EC50.

Read-outs that look alike come from different tables or passages of the source. Bounds are passed on as bounds.

By IC50 is commonly meant the point on the concentration scale where inhibition reaches its midpoint. In general, EC50 refers to the concentration that produces a half-maximal response. Consider `Cc1cc(C(=O)/N=C(/NCc2ccc(F)cc2Cl)Nc2cc(C(F)(F)F)[nH]n2)ccc1F` [Compound A-555], for which the 50% inhibitory concentration (IC50) on F1F0-ATPase was < 10 µM. Besides, in the test on Ramos cells, the concentration for a half-maximal effect (EC50) is < 10 µM.

In the case of `Cc1cc(C(=O)N=C(Nc2cc(-c3ccc(F)cc3)n[nH]2)NC(C)(C)C)ccc1F` [Compound A-556], the half-inhibitory concentration (IC50) at F1F0-ATPase is < 10 µM. Further, the EC50 with Ramos cells (Homo sapiens) is < 10 µM.

For the compound `O=C(/N=C(\Nc1cc(C(F)(F)F)[nH]n1)NC1CCC(O)CC1)c1ccc(Cl)c(F)c1` (centres unmarked) [Compound A-557], the IC50 on F1F0-ATPase is > 10 µM. Moreover, the EC50 in the test with Ramos cells was > 10 µM.

Turning to `O=C(N=C(Nc1cc(C(F)(F)F)n[nH]1)NC1CCC(F)(F)CC1)c1ccc(Cl)c(F)c1` [Compound A-558], the concentration for half-maximal inhibition (IC50) on F1F0-ATPase was < 10 µM. The concentration giving a half-maximal response (EC50) in the test with Ramos cells (Homo sapiens) is < 10 µM.

Turning to `O=C(N=C(Nc1cc(C(F)(F)F)n[nH]1)NC1CCC(O)CC1)c1ccc(F)c(F)c1` (centres unmarked) [Compound A-559], the IC50 on F1F0-ATPase is > 10 µM. Further, the EC50 in the test with Ramos cells (Homo sapiens) is > 10 µM.

Turning to `O=C(/N=C(\Nc1cc(C(F)(F)F)[nH]n1)NC1CCC(O)CC1)c1ccc(C(F)(F)F)cc1` (centres unmarked) [Compound A-560], on F1F0-ATPase, the IC50 was < 10 µM. In addition, in the test on Ramos cells, the EC50 is > 10 µM.

As to `O=C(/N=C(\Nc1cc(C(F)(F)F)[nH]n1)NC1CCC(F)(F)CC1)c1ccc(C(F)(F)F)cc1` [Compound A-561], the IC50 at F1F0-ATPase is < 10 µM. Further, in the test with Ramos cells, the EC50 was < 10 µM.

With `O=C(/N=C(/NCC(O)CO)Nc1cc(C(F)(F)F)n[nH]1)c1ccc(F)cc1` (centres unmarked) [Compound A-562, (Z)—N-(((2,3-Dihydroxypropyl)amino)((3-(trifluoromethyl)-1H-pyrazol-5-yl)amino)methylene)-4-fluorobenzamide], the half-maximal inhibitory concentration (IC50) on F1F0-ATPase was > 10 µM. In the test with Ramos cells (Homo sapiens), the EC50 was > 10 µM.

Regarding `CC(C)(C)N/C(=N/C(=O)c1ccc(C(F)(F)F)cc1)Nc1cc(-c2ccccc2O)n[nH]1` [Compound A-563, (Z)—N-((tert-Butylamino)((3-(2-hydroxyphenyl)-1H-pyrazol-5-yl)amino)methylene)-4-(trifluoromethyl)benzamide], at F1F0-ATPase, the IC50 was < 10 µM. In the test on Ramos cells (Homo sapiens), the EC50 was < 10 µM.

With `CC(C)(C)N/C(=N/C(=O)c1ccc(C(F)(F)F)cc1)Nc1cc(-c2cccc(O)c2)n[nH]1` [Compound A-564, (Z)—N-((tert-Butylamino)((3-(3-hydroxyphenyl)-1H-pyrazol-5-yl)amino)methylene)-4-(trifluoromethyl)benzamide], the IC50 at F1F0-ATPase was < 10 µM. Also, in the test with Ramos cells (Homo sapiens), the EC50 is < 10 µM.

As for `CC(C)(C)N/C(=N/C(=O)c1ccc(C(F)(F)F)cc1)Nc1cc(C(=O)O)n[nH]1` [Compound A-565, (Z)-5-(3-(tert-Butyl)-2-(4-(trifluoromethyl)benzoyl)guanidino)-1H-pyrazole-3-carboxylic acid], on F1F0-ATPase, the IC50 is > 10 µM. Also, in the test on Ramos cells (Homo sapiens), the half-maximal effective concentration (EC50) is > 10 µM.

`CC(C)CN/C(=N/C(=O)c1cccc([S+](C)[O-])c1)Nc1cc(-c2ccc(F)cc2)n[nH]1` (centres unmarked) [Compound A-566, (Z)—N-(((3-(4-Fluorophenyl)-1H-pyrazol-5-yl)amino)(isobutylamino)methylene)-3-(methylsulfinyl)benzamide]: the IC50 at F1F0-ATPase is < 10 µM. For the same compound, in the test on Ramos cells (Homo sapiens), the EC50 is < 10 µM.

Take `O=C(/N=c1\[nH]c2cc(C(F)(F)F)nn2c(=O)n1Cc1ccc(F)cc1Cl)c1ccc(F)c(F)c1` [Compound A-567, (E)-N-(3-(2-chloro-4-fluorobenzyl)-4-oxo-7-(trifluoromethyl)-3,4-dihydropyrazolo[1,5-a][1,3,5]triazin-2(1H)-ylidene)-3,4-difluorobenzamide]: the concentration for half-maximal inhibition (IC50) on F1F0-ATPase was < 10 µM. For the same compound, the EC50 in the test on Ramos cells (Homo sapiens) was < 10 µM.

For `CC1(C)Cn2nc(-c3ccc(F)cc3)cc2N/C(=N\C(=O)c2ccc(F)cc2)N1` [Compound A-568, (Z)-4-fluoro-N-(8-(4-fluorophenyl)-4,4-dimethyl-4,5-dihydro-1H-pyrazolo[1,5-a][1,3,5]triazepin-2(3H)-ylidene)benzamide], the 50% inhibitory concentration (IC50) at F1F0-ATPase is < 10 µM. Also, in the test on Ramos cells (Homo sapiens), the concentration for a half-maximal effect (EC50) was < 10 µM.

For `O=C(/N=C1\Nc2cc(-c3ccc(F)cc3)nn2C[C@@H]2CCCN12)c1ccc(F)cc1` [Compound A-569, (S,E)-4-fluoro-N-(2-(4-fluorophenyl)-8,9,9a,10-tetrahydro-4H-pyrazolo[1,5-a]pyrrolo[1,2-e][1,3,5]triazepin-5(7H)-ylidene)benzamide], the IC50 on F1F0-ATPase is > 10 µM. Besides, the EC50 in the test on Ramos cells (Homo sapiens) was > 10 µM.

For the compound `CC(C)CN/C(=N/C(=O)c1ccc(F)c(F)c1)Nc1cc(-c2ccc(CO)cc2)n[nH]1` [Compound A-570, (Z)-3,4-Difluoro-N-(((3-(4-(hydroxymethyl)phenyl)-1H-pyrazol-5-yl)amino)(isobutylamino)methylene)benzamide], on F1F0-ATPase, the IC50 is > 10 µM. In addition, the EC50 in the test on Ramos cells (Homo sapiens) is > 10 µM.

For the compound `COc1ccc(-c2cc(N/C(=N\C(=O)c3ccc(C(F)(F)F)cc3)NCC(C)C)[nH]n2)cc1F` [Compound A-571], the IC50 on F1F0-ATPase is < 10 µM. Moreover, the EC50 with Ramos cells is < 10 µM.

Take `COC[C@H](C)N/C(=N/C(=O)c1ccc(C(F)(F)F)cc1)Nc1cc(-c2ccc(OC)c(F)c2)n[nH]1` [Compound A-572]: the IC50 on F1F0-ATPase is < 10 µM. Also, the half-maximal effective concentration (EC50) with Ramos cells was > 10 µM.

As for `COc1ccc(-c2cc(N/C(=N\C(=O)c3ccc(C(F)(F)F)cc3)NCC(C)(C)C)[nH]n2)cc1F` [Compound A-573], the IC50 on F1F0-ATPase was < 10 µM. Besides, in the test with Ramos cells, the concentration for a half-maximal effect (EC50) is > 10 µM.

Take `COc1ccc(-c2cc(N/C(=N\C(=O)c3ccc(C(F)(F)F)cc3)NC3CCCC3)[nH]n2)cc1F` [Compound A-574]: the IC50 on F1F0-ATPase is < 10 µM. In the test on Ramos cells, the EC50 was > 10 µM.

`COc1ccc(-c2cc(N/C(=N\C(=O)c3ccc(C(F)(F)F)cc3)NC(C)(C)C)[nH]n2)cc1F` [Compound A-575]: the IC50 on F1F0-ATPase is < 10 µM. In addition, the EC50 in the test with Ramos cells was < 10 µM.

Take `CC(C)CN/C(=N/C(=O)c1cccc([S+](C)[O-])c1)Nc1cc(-c2ccc(F)cc2)n[nH]1` (centres unmarked) [Compound A-576]: the IC50 on F1F0-ATPase was < 10 µM. Besides, in the test on Ramos cells, the concentration giving a half-maximal response (EC50) was < 10 µM.
